Experimental findings from paper PMC9791652 (Journal of Medicinal Chemistry, 2022) are described below.

Data set [1] concerns Escherichia coliΔtolC (BW25113 ΔtolC). Description: organism not typed. It is filed as cell-based.
The conditions of data set [2]: mouse liver microsomes.
A further data set has as its system Mtb H37Rv ATP levels. In words: Impact of TriSLa exposure on Mtb ATP levels. The note with it: 24 h exposure. The class given is cell-based, Mycobacterium tuberculosis.
For data set [3], the system named is M. marinum (expressing Wasabi) infected zebrafish larvae. It is filed as in vivo. To be noted: for lowest dose significantly prolonging survival of infected zebrafish: 4-day exposure in water, refreshed daily, 1 to 5 dpi.
A further data set is described as follows: physchem. To be noted: pH 7.4.
In data set [4] the test system is noninfected zebrafish larvae. To be noted: data not shown.
In another data set the test system is H37Rv. The class given is cell-based, Mycobacterium tuberculosis.
Data set [5] deals with streptomycin starved 18b nonreplicating Mtb (ss18b-lux). It is filed as cell-based, Mycobacterium tuberculosis. The note with it: for drop in bacterial counts (cfu) of ss18b-lux: 7 days of exposure; for bactericidal activity against nonreplicating ss18b-lux by cfu counting: 7 days of antibiotic exposure.
Data set [6] relates to Mtb H37Rv NADH/NAD+ ratio. Description: Impact of TriSLa exposure on Mtb NADH and NAD+ levels. It is filed as cell-based, Mycobacterium tuberculosis.

Structures are written as SMILES. In brackets after ≈: the same amount, converted by molar mass. Like-named read-outs stand apart in the source and are kept apart here.

As to `CC(C)[C@H]1CO[C@]23CCN(Cc4ccccc4)C[C@H]2CCC(=O)N13` [Compound 1, (3S,7aR,11aR)-9-Benzyl-3-isopropyl-2,3,6,7,7a,8,10,11-octahydrooxazolo[2,3-j][1,6]naphthyridin-5-one], in [1], the MIC is more than 100 µM. Further, the “metabolic stability (in words)” value in data set [2] is reported as “high clearance”.

For `CC(C)[C@H]1CO[C@]23CCN(Cc4ccc(C(F)(F)F)cc4)C[C@H]2CCC(=O)N13` [Compound 11, (3S,7aR,11aR)-3-Isopropyl-9-[[4-(trifluoromethyl)phenyl]methyl]-2,3,6,7,7a,8,10,11-octahydrooxazolo[2,3-j][1,6]naphthyridin-5-one], the “bacterial ATP concentrations” value in the data set on Mtb H37Rv ATP levels was “concentration-dependent shutdown in bacterial ATP concentrations”. For the same compound, the “lowest dose significantly prolonging survival of infected zebrafish” value in data set [3] amounted to 0.3 µM. The same compound returned a log distribution coefficient (logD) in “physchem” of 3.9. The “toxicity in noninfected zebrafish larvae” value in data set [4] was “did not interfere with larval development or show any toxicity”. In addition, in the data set on H37Rv, the “bactericidal activity by cfu at 1× MIC” value is “bacteriostatic”, the “drop in cfu after 1 week” value is approximately 0.8 log and the “drop in cfu after 2 weeks” value was approximately 2.0 log. The compound further displayed a minimum inhibitory concentration (MIC) in data set [1] of 100 µM (≈ 39.6 µg/mL). In [5], the ss18b-lux luminescence signal entry was “time-dependent decrease in luminescence” and the “bactericidal activity against nonreplicating ss18b-lux by cfu counting” value (from here on “bactericidal activity … by cfu counting”) is “concentration-dependent killing”. Also, in [5] (4.8 μM), the “drop in bacterial counts (cfu) of ss18b-lux” value (“drop in bacterial counts (cfu)” below) is given as 1–2 log.

Consider `CC(C)[C@H]1CO[C@]23CCN(Cc4ccc(OC(F)(F)F)cc4)C[C@H]2CCC(=O)N13` [Compound 12, (3S,7aR,11aR)-3-Isopropyl-9-[[4-(trifluoromethoxy)phenyl]methyl]-2,3,6,7,7a,8,10,11-octahydrooxazolo[2,3-j][1,6]naphthyridin-5-one], for which the “bacterial ATP concentrations” value with Mtb H37Rv ATP levels is given as “concentration-dependent shutdown in bacterial ATP concentrations”. Also, the “bacterial load (fluorescence pixel count) in infected zebrafish” value in [3] (0.5 μg/mL ([…]), 2–4 days of exposure) was “bacteriostatic”. The “bacterial load (fluorescence pixel count) in infected zebrafish” value in data set [3] (2 μg/mL (4.8 μM), between 2 and 4 days of exposure) was “significant decrease in the bacterial burden”. Also, in data set [3] (0.25 to 2 μg/mL (0.6–4.8 μM), 2 or 4-day treatment), the “infection foci in fluorescence images” value is “fewer and less intense infection foci”. Also, the “lowest dose significantly prolonging survival of infected zebrafish” value in [3] is 0.3 µM. This compound also had a logD in “physchem” of 3.4. The “toxicity in noninfected zebrafish larvae” value in [4] was “did not interfere with larval development or show any toxicity”. For the same compound, in the data set on H37Rv, the “bactericidal activity by cfu at 1× MIC” value is on record as “bacteriostatic”, the “drop in cfu after 1 week” value is given as approximately 0.8 log and the “drop in cfu after 2 weeks” value was approximately 2.0 log. The compound also showed an MIC in data set [1] of 100 µM (≈ 41.2 µg/mL). Further, in [5], the ss18b-lux luminescence signal entry is on record as “time-dependent decrease in luminescence” and the “bactericidal activity … by cfu counting” value is “concentration-dependent killing”. For the same compound, the “drop in bacterial counts (cfu)” value in data set [5] (4.8 μM) is given as 1–2 log.

Regarding `CC(C)[C@H]1CO[C@]23CCN(Cc4ccc(C(F)(F)F)nc4)C[C@H]2CCC(=O)N13` [Compound 13, (3S,7aR,11aR)-3-Isopropyl-9-[[6-(trifluoromethyl)-3-pyridyl]methyl]-2,3,6,7,7a,8,10,11-octahydrooxazolo[2,3-j][1,6]naphthyridin-5-one], in data set [3], the “lowest dose significantly prolonging survival of infected zebrafish” value is 1.2 µM. For the same compound, in data set [4], the “toxicity in noninfected zebrafish larvae” value is listed as “did not interfere with larval development or show any toxicity”.

Regarding `COc1nc2ccc(Br)cc2cc1[C@@H](c1ccccc1)[C@@](O)(CCN(C)C)c1cccc2ccccc12` [bedaquiline], the “bacterial ATP concentrations” value in the data set with Mtb H37Rv ATP levels is listed as “concentration-dependent shutdown in bacterial ATP concentrations”. For the same compound, in [6], the “Mtb NADH/NAD+ ratio relative to untreated bacteria” value is “increase in the NADH/NAD^+ ratio”. Moreover, the “bactericidal activity by cfu at 1× and 2× MIC” value in the data set on H37Rv (H37Rv, 1× and 2× MIC (250 and 500 nM), 2 week exposure period) was “largely bacteriostatic”. In addition, in data set [5], the ss18b-lux luminescence signal result is on record as “time-dependent decrease in luminescence” and the “bactericidal activity … by cfu counting” value is listed as “bactericidal”. The “drop in bacterial counts (cfu)” value in data set [5] (1 μM, stated as similar to 11 and 12 at 4.8 μM) is listed as 1–2 log.

As to `NNC(=O)c1ccncc1` [isoniazid], in [5], the ss18b-lux luminescence signal result is listed as “increase in luminescence” and the “bactericidal activity … by cfu counting” value was “no significant bactericidal activity”.

`CO[C@H]1/C=C/O[C@@]2(C)Oc3c(C)c(O)c4c(O)c(c(/C=N/N5CCN(C)CC5)c(O)c4c3C2=O)NC(=O)/C(C)=C\C=C\[C@H](C)[C@H](O)[C@@H](C)[C@@H](O)[C@@H](C)[C@H](OC(C)=O)[C@@H]1C` [rifampicin]: in data set [6], the “Mtb NADH/NAD+ ratio relative to untreated bacteria” value is listed as “decrease in NADH/NAD^+”. Besides, in data set [5], the ss18b-lux luminescence signal entry was “time-dependent decrease in luminescence” and the “bactericidal activity … by cfu counting” value is “bactericidal”. The “drop in bacterial counts (cfu)” value in data set [5] (0.6 μM, stated as similar to 11 and 12 at 4.8 μM) is 1–2 log.
